Assay [1] relates to HIV-1. In words: HIV inhibition assay of acutely infected CEM cells (MTT tetrazolium colorimetric, reduction of CPE). It is filed as cell-based. The settings on record: for IC50 / inhibition at 1 µg/mL / inhibition at 10 µg/mL: Human immunodeficiency virus 1, CCRF-CEM, 168 h; for IC50: read-out: ID50 (inhibitory dose that inhibits 50% of the cytopathic effect); for inhibition at 1 µg/mL / inhibition at 10 µg/mL: read-out: Percent Reduction of CPE. As to the method:
B. Representative compounds prepared in the foregoing illustrative specific examples were also tested in vitro for the assessment of anti-viral (HIV) activity as follows:
The HIV inhibition assay method of acutely infected cells is an automated tetrazolium based colorimetric assay adatped from that reported by Pauwles et al., J. Virol. Methods, 20, 309-321 (1988). Assays were performed in 96-well tissue culture plates. CEM cells were grown in RPMI-1640 medium (Gibco) supplemented with 10% fetal calf serum and were then treated with polybrene (2 μg/ml). An 80 μl volume of medium containing 1×10^4 cells was dispensed into each well of the tissue culture plate. To each well was added a 100 μl volume of test compound dissolved in tissue culture medium (or medium without test compound as a control) to achieve the desired final concentration and the cells were incubated at 37° C. for 1 hour. A frozen culture of HIV-1 was diluted in culture medium to a concentration of 5×10^4 TCID50 per ml (TCID50 =the dose of virus that infects 50% of cells in tissue culture), and a 20 μl volume of the virus sample (containing 1000 TCID50 of virus) was added to wells containing test compound and to wells containing only medium (infected control cells). […] Several wells received culture medium without virus (uninfected control cells). Likewise, the intrinsic toxicity of the test compound was determined by adding medium without virus to several wells containing test compound. In summary, the tissue culture plates contained the following tests (in triplicate):
In tests 2 and 4 the final concentrations of test compounds were 1, 10, 100 and 500 μg/ml. Azidothymidine (AZT) was tested as a positive drug control, and dodecanoic acid was tested as a negative fatty acid control. […] Under these conditions, DMSO had no significant effect on results as determined in controls.
Following the addition of virus, cells were incubated at 37° C. in a humidified, 5% CO2 atmosphere for 7 days. Additional aliquots of test compounds were added on days 2 and 5. On day 7 post-infection, the cells in each well were resuspended and a 100 μl sample of each cell suspension was removed for assay. A 20 μl volume of a 5 mg/ml solution of 3-(4,5-dimethylthiazol-2-yl)-2,5-diphenyltetrazolium bromide (MTT) was added to each 100 μl cell suspension, and the cells were incubated for 4 hours at 37° C. in a 5% CO2 environment. […] To each sample was added 100 μl of 10% sodium dodecylsulfate in 0.01 N HCl to lyse the cells and samples were incubated overnight. The absorbance of each sample was determined.at 590 nm using a Molecular Devices microplate reader. The % reduction of the virus induced cytopathic effect (CPE) by the test compounds was determined using the formula shown at the bottom of Table 2, hereinafter.
The results of the antiviral testing are set forth in Table 2, as percent reduction in cytopathic effect (CPE). The inhibitory dose that inhibits 50% of the cytopathic effect is shown as ID50 (μg/ml).
^a The percent reduction of viral CPE was calculated by the formula: […]

The target in assay [2] is T1, yeast N-myristoyltransferase (Saccharomyces cerevisiae, UniProt P14743).
T1 sequence (P14743 1-455): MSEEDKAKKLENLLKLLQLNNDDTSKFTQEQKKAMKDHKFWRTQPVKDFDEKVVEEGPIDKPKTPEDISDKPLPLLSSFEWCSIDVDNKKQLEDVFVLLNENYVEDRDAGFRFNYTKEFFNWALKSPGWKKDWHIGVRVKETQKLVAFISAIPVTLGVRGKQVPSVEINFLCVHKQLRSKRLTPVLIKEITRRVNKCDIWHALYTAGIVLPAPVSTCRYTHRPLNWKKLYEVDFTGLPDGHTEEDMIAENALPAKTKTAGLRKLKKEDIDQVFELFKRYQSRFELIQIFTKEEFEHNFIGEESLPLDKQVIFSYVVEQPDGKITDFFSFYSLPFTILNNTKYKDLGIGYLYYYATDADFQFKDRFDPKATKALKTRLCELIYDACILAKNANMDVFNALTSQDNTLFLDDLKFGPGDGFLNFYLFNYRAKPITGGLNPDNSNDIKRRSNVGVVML
The assay is described as follows: in vitro yeast N-myristoyltransferase (NMT) assay, substrate activity of fatty acyl CoA derivatives. In kind it is biochemical. The settings on record: peptide GSAASARR-NH2, 30° C., 10 minutes; normalized to myristoyl peptide of parallel assay. Here is the method:
A. Representative compounds prepared in the foregoing illustrative specific examples were analyzed in a conventional in vitro yeast N-myristoyltransferase (NMT) assay as published by Heuckeroth et al., Proc. Nat'l Acad. Sci. USA 85, 8795-8799 (1988). In this assay, the test compounds were first converted to their respective fatty acyl CoA derivatives and then tested as substrates for the yeast NMT.
The assay conditions [essentially the same as those reported by Towler and Glaser, Proc. Natl. Acad. Sci. USA 83, 2812-2816 (1986)] were as follows:
1. Ligase reaction: 3.3 μmoles fatty acid, 5 mM ATP and 1 mM CoA were incubated with 15-150 milliunits of CoA ligase (1 unit/ml in 50 mM HEPES, pH 7.3) in a buffer composed of 10 mM TRIS-HCl, pH 7.4, 1 mM dithiothreitol, 5 mM MgCl2 and 0.1 mM EGTA, in a total volume of 50 μl for 25 minutes at 30° C.
2. NMT assay: 50 μl of the CoA ligase mixture was added to a 50 μl solution of 90 μM peptide (GSAASARR-NH2) in a buffer composed of 10 mM TRIS-HCl, pH 7.4, 1 mM dithiothreitol, 0.01 mM EGTA and aprotinin (10 μg/ml). 0.4 Unit of yeast N-myristoyltransferase was then added and the reaction mixture was incubated at 30° C. for 10 minutes. The peptide was radiolabeled with tritiated alanine in position 3. The reaction was quenched with 120 μl of TCA-MeOH and 75 μl was injected on a reverse phase C18 HPLC column and eluted with a linear gradient of 0-100% acetonitrile over 100 minutes (both water and acetonitrile containing 0.1% trifluoroacetic acid). Radioactivity was assessed with an on line radiomatic detector corrected for quenching.
The amount of radioactivity was determined for each azido-substituted fatty acyl peptide product and then was normalized to the amount of myristoyl peptide produced in an assay run in parallel.

Assay [3] has as its system HIV-1. In words: HIV inhibition assay of acutely infected CEM cells (MTT tetrazolium colorimetric, reduction of CPE). In kind it is cell-based. The settings on record: Human immunodeficiency virus 1, CCRF-CEM, 168 h, read-out: Percent Reduction of CPE.
Setting [4] is: concentration 1 (μg/ml), CEM cells, HIV-1, 7 days.
[5] abbreviates: concentration 10 (μg/ml), CEM cells, HIV-1, 7 days.

In brackets after ≈: the same amount, converted by molar mass. Where two headings read alike, the source gives them in different places. Some results are limits rather than exact numbers.

On to `[N-]=[N+]=NCCCOCCCCCCCC(=O)O` [Compound 41, 8-(1-Azido-propane-3-oxa)octanoic acid], for which the IC50 in assay [1] (CEM cells, HIV-1, 7 days) was 5 µg/mL (≈ 20.6 µM). Moreover, the inhibition at 1 µg/mL in assay [1] (setting [4]) was 14%. The inhibition at 10 µg/mL in assay [1] (setting [5]) is 66%. Besides, the “Activity (% of Myristate)” value in assay [2] is on record as 421 % of Myristate.
Turning to `Cc1cn([C@H]2C[C@H](N=[N+]=[N-])[C@@H](CO)O2)c(=O)[nH]c1=O` [AZT, Azidothymidine], the IC50 in assay [1] (CEM cells, HIV-1, 7 days) is less than 0.001 µg/mL. Moreover, the inhibition at 0.5 µg/mL in assay [3] is 87.8%. For the same molecule, the inhibition at 0.001 µg/mL in assay [3] (0.001 μg/ml, CEM cells, HIV-1, 7 days) is 58.2%. In assay [3] (0.01 μg/ml, CEM cells, HIV-1, 7 days), the inhibition at 0.01 µg/mL was 84.8%. For the same molecule, the inhibition at 0.1 µg/mL in assay [3] (0.1 μg/ml, CEM cells, HIV-1, 7 days) came to 101%.
Turning to `[N-]=[N+]=NCCCCCCCCCOCC(=O)O` [Compound 43, 2-(1-Azido-nonane-9-oxa)acetic acid], the “ID50 (inhibitory dose that inhibits 50% of the cytopathic effect)” value in assay [1] (CEM cells, HIV-1, 7 days) is “Inactive”. The “Activity (% of Myristate)” value in assay [2] is on record as 11 % of Myristate.
As to `[N-]=[N+]=NCCCCCCCCSCCC(=O)O` [Compound 23, 4-(1-Azido-octane-6-thia)propionic acid], the “ID50 (inhibitory dose that inhibits 50% of the cytopathic effect)” value in assay [1] (CEM cells, HIV-1, 7 days) is given as “Inactive”. In addition, in assay [1], the inhibition at 1 µg/mL was found to be 0% and the inhibition at 10 µg/mL was determined as 0%. In assay [2], the “Activity (% of Myristate)” value is given as 373 % of Myristate.
`[N-]=[N+]=NCCCCCCCCC(=O)O` [Compound 3, 9-Azidononanoic acid]: the “Activity (% of Myristate)” value in assay [2] is listed as 55 % of Myristate.
“12-(Tetrazolyl)dodecanoic acid [Compound 46]”: the “ID50 (inhibitory dose that inhibits 50% of the cytopathic effect)” value in assay [1] (CEM cells, HIV-1, 7 days) is 5.9 µg/mL. Besides, the “Percent Reduction of CPE” value in assay [1] (setting [4]) stood at 12%; in assay [1] (setting [5]), 65%. The “Activity (% of Myristate)” value in assay [2] is given as 46 % of Myristate.
Consider `[N-]=[N+]=NCCCCCCCCCCC(=O)O` [Compound 2, 11-Azidoundecanoic acid], for which, in assay [1] (setting [4]), the inhibition at 1 µg/mL stood at 16.3%. The inhibition at 10 µg/mL in assay [1] (setting [5]) was 34.6%. Besides, in assay [2], the “Activity (% of Myristate)” value is given as 100 % of Myristate.
Take `[N-]=[N+]=NCCCCCCOCCCCC(=O)O` [Compound 42, 5-(1-Azido-hexane-6-oxa)pentanoic acid]: the “ID50 (inhibitory dose that inhibits 50% of the cytopathic effect)” value in assay [1] (CEM cells, HIV-1, 7 days) is “Inactive”. Besides, the inhibition at 1 µg/mL in assay [1] (setting [4]) amounted to 4%. For the same molecule, the inhibition at 10 µg/mL in assay [1] (setting [5]) is 20%. The “Activity (% of Myristate)” value in assay [2] is recorded as 622 % of Myristate.
For `[N-]=[N+]=NCCOCCCCCCCCC(=O)O` [Compound 40, 9-(1-Azido-ethane-2-oxa)nonanoic acid], the “Activity (% of Myristate)” value in assay [2] was 280 % of Myristate.
For `CCCCCCCCCC(=O)O` [Decanoic acid, reference compound], in assay [1], the inhibition at 1 µg/mL was found to be 7.7% and the inhibition at 10 µg/mL was 11.3%.
On to `[N-]=[N+]=NCCCCCCCCCCCC(=O)O` [Compound 1, 12-Azidododecanoic acid], for which, in assay [1] (CEM cells, HIV-1, 7 days), the IC50 came out at 0.3 µg/mL (≈ 1.24 µM). Further, the inhibition at 1 µg/mL in assay [1] (setting [4]) is 81.7%. Moreover, in assay [1] (setting [5]), the inhibition at 10 µg/mL stood at 38.2%. In addition, in assay [2], the “Activity (% of Myristate)” value is on record as 142 % of Myristate.
Consider `O=C(O)CCCCCCCCCCCn1cncn1` [Compound 48], for which the IC50 in assay [1] (CEM cells, HIV-1, 7 days) came out at 4.2 µg/mL (≈ 15.7 µM). Further, the inhibition at 1 µg/mL in assay [1] (setting [4]) turned out to be 24%. The inhibition at 10 µg/mL in assay [1] (setting [5]) was 66%. The “Activity (% of Myristate)” value in assay [2] was 23 % of Myristate.
In the case of `O=C(O)CCCCCCCCCCCn1nccn1` [Compound 50, 12-(N-2-[1,2,3]-Triazolyl)dodecanoic acid], the inhibition at 1 µg/mL in assay [1] (setting [4]) amounted to 19.5%. Besides, in assay [1] (setting [5]), the inhibition at 10 µg/mL is 30.8%. Besides, the “Activity (% of Myristate)” value in assay [2] is 99 % of Myristate.
For the molecule `[N-]=[N+]=NCCCCCCSCCCCC(=O)O` [Compound 13, 5-(1-Azido-hexane-6-thia)pentanoic acid], the “ID50 (inhibitory dose that inhibits 50% of the cytopathic effect)” value in assay [1] (CEM cells, HIV-1, 7 days) is “Inactive”. In assay [1] (setting [4]), the inhibition at 1 µg/mL came to 0%. Further, the inhibition at 10 µg/mL in assay [1] (setting [5]) turned out to be 14%. Further, the “Activity (% of Myristate)” value in assay [2] was 103 % of Myristate.
`[N-]=[N+]=NCCCCCCCCCSCC(=O)O` [Compound 19, 2-(1-Azido-nonane-9-thia)acetic acid]: the IC50 in assay [1] (CEM cells, HIV-1, 7 days) worked out at 9.2 µg/mL (≈ 35.5 µM). In assay [1] (setting [4]), the inhibition at 1 µg/mL was found to be 1%. The inhibition at 10 µg/mL in assay [1] (setting [5]) stood at 54%. For the same molecule, the “Activity (% of Myristate)” value in assay [2] is 17 % of Myristate.
In the case of `COCCCCCCCCCCCC(=O)O` [13-Oxamyristate, reference compound], the IC50 in assay [1] (CEM cells, HIV-1, 7 days) amounted to 0.3 µg/mL (≈ 1.3 µM). Also, the inhibition at 1 µg/mL in assay [1] (setting [4]) turned out to be 66.4%. Moreover, the inhibition at 10 µg/mL in assay [1] (setting [5]) was 43.5%.

Source of the values: patent publication US5338858A, “Triazolyl, tetrazolyl and azido-substituted fatty acid analog enzyme substrates” (Washington University, priority 1992, dated 1994).
